# Reference: patent US6265376A, “Insecticidal plectoxins from plectreurys tristis” (Novartis AG, priority 1995, dated 2001)
# Key:
# M. sexta = assay: Injection of plectoxins into insect larvae (toxicity); format: in vivo, Manduca sexta
# Method: (§1) Polypeptides isolated from or those showing substantial homology to those isolated from the venom of Plectreurys tristis are useful as insecticidal agents. In particular, they are useful insecticidal agents against insects of the order Lepidoptera, for example, Heliothis virescens, Autographa californica, and the insects of the genus Spodoptera. Both the purified plectoxin and viruses transformed to produce the plectoxin are assayed for bioactivity on larvae including: tobacco hornworms (Manduca sexta), tobacco budworms (Heliothis virescens) and beet armyworm (Spodoptera exizua).
# (§2) Venom from P. tristis is obtained from Spider Pharm, Black Canyon City, Az. Crude venom (approximately 200 μl per injection) is fractionated by reversed-phase liquid chromatography (LC) using the following conditions: a Perkin Elmer Model 410 Bio solvent delivery system; 5 ml injection loop; Hewlett Packard Model 1040M diode array detector at 220 and 280 nm; Aquapore ODS column, 22×1 cm (Brownlee Labs, Santa Clara, Calif.); 4.5 ml/min; acetonitrile (MeCN) in a constant 0.1% trifluoroacetic acid, 0% MeCN for 5 min, then linear gradient of 0 to 60% MeCN over 55 min. Similar fractions from several runs are combined and portions are removed for bioassays. […]
# S. exigua = assay: as above; format: in vivo, Spodoptera exigua
# Method: as §1
# Various plectoxins isolated from venom are injected into three different insect larvae. […] ED50 is the dose which is effective to paralyze 50% of the larvae at one hour. Values with an asterisk denote duplicate analysis with samples from different milking lots.
# insects = assay: Insect toxicity (paralysis and/or death of test larvae), general statements; format: in vivo; settings: injection of a number of different insects
# Method: as §1
# H. virescens = assay: Injection of plectoxins into insect larvae (toxicity); format: in vivo, Heliothis virescens
# Method: as §1, §2
# [1] = dose paralyzing 50% of larvae at one hour
# [2] = lethal dose for 50% of treated larvae at 24 hours
substance,measurement,setting,value
Plt-VI (AVKCIGWQETCNGNLPCCNECVMCECNIMGQNCRCNHPKATNECES),ED50,M. sexta; [1],0.10 µg/g
same,LD50,M. sexta; [2],0.15 µg/g
same,ED50,S. exigua; [1],0.32 µg/g
same,LD50,S. exigua; [2],> 10 µg/g
same,paralytic activity upon injection,insects,very high level of paralytic activity
same,ED50,H. virescens; [1],0.21 µg/g
same,LD50,H. virescens; [2],1.2 µg/g
